# Assay results: patent publication US20250319139A1, “METHODS FOR TREATING NEUROINFLAMMATION” (University of Virginia Patent Foundation, priority 2021, published 2025)
# “Also recorded” adds a separate entry of the source.
# Legend:
# Type in all cases: in vivo, mouse
# Iba-1 = Iba-1 immunofluorescent staining of hippocampus; details: young adult mice with exercise and surgery; intraperitoneal valeric acid
# Method: (§1) The immunofluorescent labeling and quantification of the staining were performed as described before. Briefly, brain was fixed in 4% paraformaldehyde at 4° C. for 24 h and then incubated in 30% sucrose over night at 4° C. before being frozen in optimal cutting temperature compound. Coronal 20-μm thick sections were cut sequentially from Bregma -3 to -6 mm by using a cryostat and mounted on microscope slides. After being washed in Tris-buffered saline (TBS), sections were blocked in 10% donkey serum plus 1% bovine serum albumin (BSA) in TBS containing 0. 3% triton-X 100 for 2 h at room temperature and then incubated at 4° C. overnight with the following primary antibodies: rabbit monoclonal anti-C3 antibody (1:50), goat monoclonal anti-GFAP antibody (1:200), rat monoclonal anti-[…] antibody (1:50) and rabbit monoclonal anti-Iba-1 antibody (1:200). Sections were rinsed in TBS with 0.1% Triton-x 100. […] The quantification was performed as described previously. […] The number of pixels per image with intensity above a predetermined threshold level was considered as a positively stained area for an interested marker and quantified using the Image-pro plus 6.0 (Media Cybernetics, Inc., Rockville, MD, USA) and presented as percentage of positive area in the total area. […] All quantitative analyses were performed in a blinded manner.
# IL-6 [1] = assay: ELISA of IL-6 in the serum; details: young mice, 100 mg/kg intraperitoneal 1 h before and 6 h after 120-min MCAO; 24 h after MCAO; vs saline
# Method: Mice were weighed and anesthetized with isoflurane at 24 h after MCAO. Blood samples were obtained from the right heart after thoracotomy. Blood was centrifuged (13,000 g, 4° C.) after it had been placed at 4° C. for 2 h for the collection of serum. After the collection of blood, mice were perfused with 4° C. saline for brain tissue harvesting. The cerebral cortex (anteroposterior: −1.5 to 2.5 mm, mediolateral: 1.0 to 3.0 mm) was dissected out. All dissection procedures were performed on ice.
# IL-10, IL-17, IL-1β and IL-6 in the serum and brain were detected by using ELISA kits (catalog number: M1000B, M1700, MLB00C and D6050, R&D SYSTEM, Inc., Minneapolis, MN, USA) as we described before. The brain tissues were homogenized on ice in the RIPA buffer containing 25 mM Tris-HCl with pH 7.6, 150 mM NaCl, 1% sodium deoxycholate and 0.1% SDS (catalog number: 89901, Thermo Scientific, Rockford, IL, USA) and a protease inhibitor cocktail containing 10 mg/ml aproteinin, 5 mg/ml peptastin, 5 mg/ml leupetin and 1 mM phenylmethane sulfonylfluoride (catalog number: SRE0055, Sigma-Aldrich, St. Louis, MO, USA). The supernatant was collected for ELISA detection after being centrifuged for 20 min (13,000 g, 4° C.) and the protein concentration was determined by the BCA method. Cytokines in the serum and supernatant of brain were detected according to the manufacturer's instruction. […]
# [2] = Cortical valeric acid quantification by HPLC; details: 9-week old mice, intraperitoneal valeric acid vs normal saline; 24 h after the last injection
# Method: The amount of valeric acid in the cerebral cortex harvested 24 h after the last intraperitoneal injection of valeric acid was determined by a method similar to that reported before. Briefly, 0.1 g cerebral cortex was homogenized in 500 μl aqueous acetonitrile. Supernatant was extracted with 8 ml extraction buffer (hexane: diethyl ether=1:1) and centrifuged at 1800 g for 5 min. 7.5 ml supernatant was collected, mixed with 93 μl 20 mM KOH in methanol and dried at 40° C. under nitrogen gas. Dried residue was reconstituted in 50 μl 2.5% 18-Crown-6 in acetonitrile and was further derivatized with 9-chloromethylanthracene in acetonitrile with addition of tetramethylammonium hydroxide. Finally, 30 μl derivatization solution was loaded to Acclaim C18 column (3 μm, 4.6×100 mm, Thermo Scientific) and separated in Ultimate 3000 high performance liquid chromatograph (HPLC, Thermo Scientific) equipped with UV-visible detector. The peak of derivatized valeric acid was detected at a wavelength of 254 nm. 2-Ethylbutyric acid (2-EA) was added as an internal reference control. The peak area of valeric acid was measured as mAU*min and its peak area of each sample was normalized with that of 2-EA in the sample. Final results were presented as ratios of valeric acid group to NS group.
# IL-6 [3] = assay: IL-6 in the hippocampus by ELISA; details: young adult mice with exercise and surgery; intraperitoneal valeric acid
# Method: IL-1β, IL-6, C3 and GDNF in the hippocampus were detected by using ELISA kits. For testing the IL-1β, IL-6 and GDNF, brain tissues were homogenized on ice in the RIPA buffer containing 25 mM Tris-HCl with pH 7.6, 150 mM NaCl, 1% sodium deoxycholate, 0.1% SDS and a protease inhibitor cocktail containing 10 mg/ml aproteinin, 5 mg/ml peptastin, 5 mg/ml leupetin and 1 mM phenylmethane sulfonylfluoride. For C3 testing, brain tissues were homogenized on ice in the PTR buffer (supplied in the kit). The supernatant was collected for ELISA detection after the homogenate was centrifuged at 13,000 g for 20 min at 4° C. and the protein concentration was determined by the BCA protein assay (Bio-Rad, Hemel Hempstead, Herts, UK). IL-1β, IL-6, C3 and GDNF in supernatant of brain were detected according to the manufacturer's instruction for ELISA, and the amount of them in each sample in the brain was normalized by its total protein content and was expressed as pg/mg protein.
# [4] = Plasma SCFA profiling by GC-MS; details: mice with exercise and surgery, intraperitoneal valeric acid; blood 7 days after surgery
# C57BL/6J mice = assay: Novel object recognition test, young adult mice
# C3ar = C3ar immunofluorescent staining of hippocampus; details: young adult mice with exercise and surgery; intraperitoneal valeric acid
# Method: as §1
smiles,measurement,setting,value
CCCCC(=O)O [valeric acid],exercise-induced reduction of Iba-1 in the hippocampus,Iba-1,this reduction was blocked
same,IL-6 in the blood,IL-6 [1],increased
same,amount of valeric acid in the brain (cerebral cortex),[2],increased
same,exercise-induced reduction of IL-6 in the hippocampus,IL-6 [3],this reduction was blocked
same,butyric acid in the blood,[4],attenuated this reduction
same,hexanic acid in the blood,[4],attenuated this reduction
same,valeric acid in the blood,[4],attenuated this reduction; also recorded: did not increase
same,performance in novel object recognition test,"C57BL/6J mice; 13-week old mice without surgery, intracerebroventricular 4 mg/kg once daily for 4 days (1/50 dose of intraperitoneal injection)",did not affect the performance
same,performance in novel object recognition test,"C57BL/6J mice; young adult mice with exercise and surgery, valeric acid 200 mg/kg intraperitoneal once a week vs normal saline",abolished
same,exercise-induced reduction of C3ar in the hippocampus,C3ar,this reduction was blocked
